The supplement of paper PMC10307832

Tests used:
Experiment in all cases: relative viability (nuclei count vs DMSO), 5 days (fraction); higher = more cells survive
[1] = compound: C1CNCCC1C2=CC(=NN2)C3=CC=NC=C3 + CS(=O)(=O)N1CCN(Cc2cc3nc(-c4cccc5[nH]ncc45)nc(N4CCOCC4)c3s2)CC1 [Pictilisib] (partner 1 µM)
Outline: (§1)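 Relative viability divides the nuclei count in treated wells by that in vehicle wells. Lung cancer cell lines were seeded in 1536-well plates, dosed by pin tool the next day, and fixed and stained after 5 days in one step with final 0.05% Triton X-100, 1% formaldehyde and 1 ug/ml Hoechst. Dosing was a single drug or a fixed anchor-drug dose plus five library-drug doses (not always all listed) in √10 steps, and values are medians of duplicate plates imaged at 4×.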

[2] = compound: C[C@@H](N)c1ccc(C(=O)Nc2ccnc3[nH]ccc23)cc1 + CS(=O)(=O)CCNCc1ccc(-c2ccc3ncnc(Nc4ccc(OCc5cccc(F)c5)c(Cl)c4)c3c2)o1 [Lapatinib] (partner 2 µM)
Outline: as §1

Tanzisertib + Navitoclax = compound: O[C@H]1CC[C@H](Nc2ncc3nc(Nc4c(F)cc(F)cc4F)n([C@H]4CCOC4)c3n2)CC1 [Tanzisertib] + CC1(C)CCC(c2ccc(Cl)cc2)=C(CN2CCN(c3ccc(C(=O)NS(=O)(=O)c4ccc(N[C@H](CCN5CCOCC5)CSc5ccccc5)c(S(=O)(=O)C(F)(F)F)c4)cc3)CC2)C1 [Navitoclax] (partner 0.5 µM)
Outline: as §1

Tanzisertib + Linsitinib = compound: O[C@H]1CC[C@H](Nc2ncc3nc(Nc4c(F)cc(F)cc4F)n([C@H]4CCOC4)c3n2)CC1 [Tanzisertib] + C[C@]1(O)C[C@@H](c2nc(-c3ccc4ccc(-c5ccccc5)nc4c3)c3c(N)nccn32)C1 [Linsitinib] (partner 1 µM)
Outline: as §1

Cell Line | relative viability ([1]; first compound 0.08 µM) | relative viability ([1]; first compound 0.8 µM) | relative viability ([1]; first compound 2.53 µM) | relative viability ([1]; first compound 8 µM) | relative viability ([2]; first compound 0.04 µM) | relative viability ([2]; first compound 0.1265 µM) | relative viability ([2]; first compound 0.4 µM) | relative viability ([2]; first compound 1.265 µM) | relative viability ([2]; first compound 4 µM) | relative viability (Tanzisertib + Navitoclax; first compound 0.08 µM) | relative viability (Tanzisertib + Navitoclax; first compound 0.253 µM) | relative viability (Tanzisertib + Navitoclax; first compound 0.8 µM) | relative viability (Tanzisertib + Navitoclax; first compound 2.53 µM) | relative viability (Tanzisertib + Navitoclax; first compound 8 µM) | relative viability (Tanzisertib + Linsitinib; first compound 0.08 µM) | relative viability (Tanzisertib + Linsitinib; first compound 0.253 µM) | relative viability (Tanzisertib + Linsitinib; first compound 0.8 µM) | relative viability (Tanzisertib + Linsitinib; first compound 2.53 µM) | relative viability (Tanzisertib + Linsitinib; first compound 8 µM)
SK-LU-1 | 0.515 | 0.499 | 0.686 | 0.644 | 0.847 | 0.85 | 0.906 | 0.828 | 0.779 | 0.834 | 0.748 | 0.759 | 1.25 | 0.8 | 1.16 | 1.15 | 1.14 | 1.17 | 1.23
LOU-NH91 | 0.545 | 0.521 | 0.522 | 0.49 | 0.701 | 0.749 | 0.801 | 0.575 | 0.709 | 0.81 | 0.664 | 0.747 | 0.675 | 0.497 | 0.996 | 0.906 | 0.996 | 0.842 | 0.627
LXF-289 | 0.776 | 0.845 | 0.823 | 0.829 | 0.968 | 0.891 | 0.959 | 1.02 | 0.851 | 1.05 | 0.917 | 1 | 0.962 | 1.03 | 1.04 | 0.916 | 1.04 | 0.995 | 1.04
NCI-H1299 | 0.711 | 0.886 | 0.772 | 0.819 | 0.908 | 0.93 | 0.91 | 0.837 | 0.737 | 1.06 | 1.09 | 1.06 | 1.08 | 1.12 | 1.16 | 0.976 | 1.02 | 1.09 | 1.06
HARA | 0.419 | 0.421 | 0.437 | 0.402 | 0.829 | 0.904 | 0.79 | 0.803 | 0.702 | 1.13 | 1.18 | 1.13 | 1.14 | 1.22 | 0.842 | 0.572 | 0.901 | 0.892 | 0.987
LU99A | 0.321 | 0.366 | 0.316 | 0.307 | 1.1 | 1.09 | 1.13 | 0.753 | 0.906 | 0.713 | 0.847 | 0.879 | 0.743 | 0.781 | 0.557 | 0.481 | 0.505 | 0.523 | 0.537
201T | 0.724 | 0.664 | 0.7 | 0.681 | 1 | 0.989 | 1.09 | 0.971 | 1.24 | 1.19 | 1.18 | 1.23 | 1.18 | 1.18 | 1.02 | 1.01 | 0.969 | 1.01 | 0.956
HCC-827 | 0.981 | 0.918 | 0.919 | 0.891 | 0.233 | 0.203 | 0.168 | 0.246 | 0.196 | 0.961 | 1.01 | 1.11 | 1 | 0.742 | 0.919 | 0.915 | 0.907 | 0.954 | 0.746
NCI-H1666 | 0.463 | 0.335 | 0.641 | 0.463 | 0.724 | 0.618 | 0.967 | 0.835 | 0.928 | 0.972 | 1.03 | 0.916 | 1.06 | 0.878 | 0.834 | 0.862 | 0.832 | 0.777 | 0.933
